Measurements: PubChem BioAssay (NCI)
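How tested: cells in 96-well plates exposed to compound for 48 hours at five concentrations. GI50 is the concentration that inhibits growth by half. TGI: concentration producing complete growth inhibition.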

Key:
Test in all cases: inhibition of tumour cell growth, NCI panel, 48 h
PC-3 prostate = system: PC-3 prostate
UACC-62 melanoma = system: UACC-62 melanoma
OVCAR-3 ovarian = system: OVCAR-3 ovarian
T-47D breast = system: T-47D breast
NCI-H460 lung = system: NCI-H460 lung
NCI-H522 lung = system: NCI-H522 lung
SK-MEL-5 melanoma = system: SK-MEL-5 melanoma
EKVX NSCLC = system: EKVX NSCLC
HT29 colon = system: HT29 colon
COLO 205 colon = system: COLO 205 colon
CAKI-1 renal = system: CAKI-1 renal
A498 renal = system: A498 renal
HOP-92 NSCLC = system: HOP-92 NSCLC
HCT-15 colon = system: HCT-15 colon
IGROV1 ovarian = system: IGROV1 ovarian
SN12C renal = system: SN12C renal
U251 CNS = system: U251 CNS
HS 578T breast = system: HS 578T breast
SF-295 CNS = system: SF-295 CNS
BT-549 breast = system: BT-549 breast
NCI-H226 lung = system: NCI-H226 lung
DU-145 prostate = system: DU-145 prostate
LOX IMVI melanoma = system: LOX IMVI melanoma
MDA-MB-231 breast = system: MDA-MB-231 breast
SNB-75 CNS = system: SNB-75 CNS
SK-MEL-28 melanoma = system: SK-MEL-28 melanoma
SK-OV-3 ovarian = system: SK-OV-3 ovarian
SK-MEL-2 melanoma = system: SK-MEL-2 melanoma
RXF 393 renal = system: RXF 393 renal
OVCAR-8 ovarian = system: OVCAR-8 ovarian
HOP-62 NSCLC = system: HOP-62 NSCLC
786-0 renal = system: 786-0 renal
MALME-3M melanoma = system: MALME-3M melanoma
HCT-116 colon = system: HCT-116 colon
NCI/ADR-RES ovarian = system: NCI/ADR-RES ovarian
TK-10 renal = system: TK-10 renal
ACHN renal = system: ACHN renal
NCI-H23 lung = system: NCI-H23 lung
SW-620 colon = system: SW-620 colon
SF-539 CNS = system: SF-539 CNS
SF-268 CNS = system: SF-268 CNS
M14 melanoma = system: M14 melanoma
CCRF-CEM leukemia = system: CCRF-CEM leukemia
RPMI-8226 leukemia = system: RPMI-8226 leukemia
MDA-MB-435 = system: MDA-MB-435
OVCAR-4 ovarian = system: OVCAR-4 ovarian
SNB-19 CNS = system: SNB-19 CNS
UACC-257 melanoma = system: UACC-257 melanoma
KM12 colon = system: KM12 colon
UO-31 renal = system: UO-31 renal
MCF7 breast = system: MCF7 breast
HCC-2998 colon = system: HCC-2998 colon
OVCAR-5 ovarian = system: OVCAR-5 ovarian
A549 NSCLC = system: A549 NSCLC

With `O=C(c1ccccc1)c1cc2ccccc2o1` the GI50 (PC-3 prostate) was 85.2 µM, the TGI (PC-3 prostate) was > 100 µM and the GI50 (UACC-62 melanoma) was > 100 µM. The TGI (UACC-62 melanoma) was > 100 µM, the GI50 (OVCAR-3 ovarian) was 59.6 µM and the TGI (OVCAR-3 ovarian) was > 100 µM. The GI50 (T-47D breast) was 83.3 µM, the TGI (T-47D breast) was > 100 µM and the GI50 (NCI-H460 lung) was > 100 µM. The TGI (NCI-H460 lung) was > 100 µM, the GI50 (NCI-H522 lung) was 82.1 µM and the TGI (NCI-H522 lung) was > 100 µM. The GI50 (SK-MEL-5 melanoma) was 80 µM, the TGI (SK-MEL-5 melanoma) was > 100 µM and the GI50 (EKVX NSCLC) was 32.6 µM. The TGI (EKVX NSCLC) was > 100 µM, the GI50 (HT29 colon) was 76.1 µM and the TGI (HT29 colon) was > 100 µM. The GI50 (COLO 205 colon) was > 100 µM, the TGI (COLO 205 colon) was > 100 µM and the GI50 (CAKI-1 renal) was 67 µM. For the same molecule, the TGI (CAKI-1 renal) was > 100 µM, the GI50 (A498 renal) was 39.9 µM and the TGI (A498 renal) was > 100 µM. For the same molecule, the GI50 (HOP-92 NSCLC) was 26.7 µM, the TGI (HOP-92 NSCLC) was > 100 µM and the GI50 (HCT-15 colon) was > 100 µM. The TGI (HCT-15 colon) was > 100 µM, the GI50 (IGROV1 ovarian) was 25.4 µM and the TGI (IGROV1 ovarian) was > 100 µM. For the same molecule, the GI50 (SN12C renal) was > 100 µM, the TGI (SN12C renal) was > 100 µM and the GI50 (U251 CNS) was 54.5 µM. The TGI (U251 CNS) was > 100 µM, the GI50 (HS 578T breast) was 37.5 µM and the TGI (HS 578T breast) was > 100 µM. The GI50 (SF-295 CNS) was 71.7 µM, the TGI (SF-295 CNS) was > 100 µM and the GI50 (BT-549 breast) was 73 µM. For the same molecule, the TGI (BT-549 breast) was > 100 µM, the GI50 (NCI-H226 lung) was > 100 µM and the TGI (NCI-H226 lung) was > 100 µM. The GI50 (DU-145 prostate) was 73.6 µM, the TGI (DU-145 prostate) was > 100 µM and the GI50 (LOX IMVI melanoma) was 73.6 µM. The TGI (LOX IMVI melanoma) was > 100 µM, the GI50 (MDA-MB-231 breast) was 91.9 µM and the TGI (MDA-MB-231 breast) was > 100 µM. The GI50 (SNB-75 CNS) was 63.2 µM, the TGI (SNB-75 CNS) was > 100 µM and the GI50 (SK-MEL-28 melanoma) was > 100 µM. For the same molecule, the TGI (SK-MEL-28 melanoma) was > 100 µM, the GI50 (SK-OV-3 ovarian) was > 100 µM and the TGI (SK-OV-3 ovarian) was > 100 µM. For the same molecule, the GI50 (SK-MEL-2 melanoma) was > 100 µM, the TGI (SK-MEL-2 melanoma) was > 100 µM and the GI50 (RXF 393 renal) was 88 µM. The TGI (RXF 393 renal) was > 100 µM, the GI50 (OVCAR-8 ovarian) was > 100 µM and the TGI (OVCAR-8 ovarian) was > 100 µM. For the same molecule, the GI50 (HOP-62 NSCLC) was > 100 µM, the TGI (HOP-62 NSCLC) was > 100 µM and the GI50 (786-0 renal) was > 100 µM. The TGI (786-0 renal) was > 100 µM, the GI50 (MALME-3M melanoma) was > 100 µM and the TGI (MALME-3M melanoma) was > 100 µM. For the same molecule, the GI50 (HCT-116 colon) was 62.7 µM, the TGI (HCT-116 colon) was > 100 µM and the GI50 (NCI/ADR-RES ovarian) was 77.4 µM. For the same molecule, the TGI (NCI/ADR-RES ovarian) was > 100 µM, the GI50 (TK-10 renal) was > 100 µM and the TGI (TK-10 renal) was > 100 µM. For the same molecule, the GI50 (ACHN renal) was > 100 µM, the TGI (ACHN renal) was > 100 µM and the GI50 (NCI-H23 lung) was > 100 µM. For the same molecule, the TGI (NCI-H23 lung) was > 100 µM, the GI50 (SW-620 colon) was 80 µM and the TGI (SW-620 colon) was > 100 µM. The GI50 (SF-539 CNS) was > 100 µM, the TGI (SF-539 CNS) was > 100 µM and the GI50 (SF-268 CNS) was 70.3 µM. For the same molecule, the TGI (SF-268 CNS) was > 100 µM, the GI50 (M14 melanoma) was > 100 µM and the TGI (M14 melanoma) was > 100 µM. The GI50 (CCRF-CEM leukemia) was > 100 µM, the TGI (CCRF-CEM leukemia) was > 100 µM and the GI50 (RPMI-8226 leukemia) was 91.8 µM. For the same molecule, the TGI (RPMI-8226 leukemia) was > 100 µM, the GI50 (MDA-MB-435) was > 100 µM and the TGI (MDA-MB-435) was > 100 µM. For the same molecule, the GI50 (OVCAR-4 ovarian) was > 100 µM, the TGI (OVCAR-4 ovarian) was > 100 µM and the GI50 (SNB-19 CNS) was > 100 µM. For the same molecule, the TGI (SNB-19 CNS) was > 100 µM, the GI50 (UACC-257 melanoma) was 77.9 µM and the TGI (UACC-257 melanoma) was > 100 µM. The GI50 (KM12 colon) was > 100 µM, the TGI (KM12 colon) was > 100 µM and the GI50 (UO-31 renal) was 21.3 µM. The TGI (UO-31 renal) was > 100 µM, the GI50 (MCF7 breast) was > 100 µM and the TGI (MCF7 breast) was > 100 µM. The GI50 (HCC-2998 colon) was > 100 µM, the TGI (HCC-2998 colon) was > 100 µM and the GI50 (OVCAR-5 ovarian) was > 100 µM. The TGI (OVCAR-5 ovarian) was > 100 µM, the GI50 (A549 NSCLC) was 95 µM and the TGI (A549 NSCLC) was > 100 µM.
